Results as given in the NIST ThermoML archive (doi:10.1021/acs.jced.7b00106).
Where “and” joins values, the source holds several entries; their conditions need not be identical. Equal entries are not always repeated.

Conditions: Hot wire method

FC(F)(F)/C=C/Cl [(E)-1-chloro-3,3,3-trifluoroprop-1-ene]
Conditions	thermal conductivity
403.42 K, 5979 kPa, Liquid	0.05892 W/m/K
403.43 K, 18618 kPa, Liquid	0.06817 W/m/K
403.44 K, 18637 kPa, Liquid	0.06808 W/m/K
403.48 K, 4696 kPa, Liquid	0.0577 W/m/K
403.48 K, 4700 kPa, Liquid	0.05772 W/m/K
403.49 K, 9102 kPa, Liquid	0.06156 W/m/K
403.49 K, 9108 kPa, Liquid	0.06159 W/m/K
403.53 K, 3569 kPa, Liquid	0.05653 W/m/K
403.54 K, 3575 kPa, Liquid	0.05665 W/m/K
403.54 K, 15778 kPa, Liquid	0.06628 W/m/K
403.54 K, 15782 kPa, Liquid	0.06631 W/m/K
403.58 K, 7083 kPa, Liquid	0.05991 W/m/K
403.58 K, 7093 kPa, Liquid	0.05996 W/m/K
403.59 K, 2636 kPa, Liquid	0.0556 W/m/K
403.6 K, 2641 kPa, Liquid	0.05565 W/m/K
420.8 K, 2579 kPa, Fluid (supercritical or subcritical phases)	0.02548 W/m/K
420.81 K, 2579 kPa, Fluid (supercritical or subcritical phases)	0.02537 W/m/K
420.9 K, 2520 kPa, Fluid (supercritical or subcritical phases)	0.02499 W/m/K and 0.02461 W/m/K
420.92 K, 2579 kPa, Fluid (supercritical or subcritical phases)	0.02548 W/m/K and 0.02551 W/m/K
421 K, 2520 kPa, Fluid (supercritical or subcritical phases)	0.02479 W/m/K
421.01 K, 2519 kPa, Fluid (supercritical or subcritical phases)	0.0248 W/m/K
421.03 K, 2579 kPa, Fluid (supercritical or subcritical phases)	0.02568 W/m/K
421.04 K, 2579 kPa, Fluid (supercritical or subcritical phases)	0.02548 W/m/K
421.11 K, 2519 kPa, Fluid (supercritical or subcritical phases)	0.02483 W/m/K
421.11 K, 2520 kPa, Fluid (supercritical or subcritical phases)	0.02479 W/m/K
421.15 K, 2469 kPa, Fluid (supercritical or subcritical phases)	0.02425 W/m/K and 0.02441 W/m/K
421.16 K, 2579 kPa, Fluid (supercritical or subcritical phases)	0.02588 W/m/K
421.16 K, 2580 kPa, Fluid (supercritical or subcritical phases)	0.02588 W/m/K
421.21 K, 2403 kPa, Fluid (supercritical or subcritical phases)	0.02382 W/m/K
421.24 K, 2520 kPa, Fluid (supercritical or subcritical phases)	0.02505 W/m/K
421.25 K, 2307 kPa, Fluid (supercritical or subcritical phases)	0.02316 W/m/K and 0.02317 W/m/K
421.25 K, 2520 kPa, Fluid (supercritical or subcritical phases)	0.02484 W/m/K
421.29 K, 2203 kPa, Fluid (supercritical or subcritical phases)	0.02266 W/m/K
421.29 K, 2204 kPa, Fluid (supercritical or subcritical phases)	0.02272 W/m/K
421.29 K, 2468 kPa, Fluid (supercritical or subcritical phases)	0.02448 W/m/K
421.3 K, 2469 kPa, Fluid (supercritical or subcritical phases)	0.02444 W/m/K
421.32 K, 2099 kPa, Fluid (supercritical or subcritical phases)	0.02221 W/m/K
421.33 K, 2099 kPa, Fluid (supercritical or subcritical phases)	0.02225 W/m/K
421.35 K, 2403 kPa, Fluid (supercritical or subcritical phases)	0.02395 W/m/K and 0.02391 W/m/K
421.36 K, 1997 kPa, Fluid (supercritical or subcritical phases)	0.02198 W/m/K and 0.02199 W/m/K
421.39 K, 2307 kPa, Fluid (supercritical or subcritical phases)	0.02322 W/m/K
421.39 K, 2519 kPa, Fluid (supercritical or subcritical phases)	0.02527 W/m/K
421.39 K, 2520 kPa, Fluid (supercritical or subcritical phases)	0.02527 W/m/K
421.4 K, 1861 kPa, Fluid (supercritical or subcritical phases)	0.0216 W/m/K
421.4 K, 1862 kPa, Fluid (supercritical or subcritical phases)	0.02165 W/m/K
421.44 K, 1724 kPa, Fluid (supercritical or subcritical phases)	0.02132 W/m/K
421.44 K, 2203 kPa, Fluid (supercritical or subcritical phases)	0.02269 W/m/K
421.44 K, 2469 kPa, Fluid (supercritical or subcritical phases)	0.02473 W/m/K and 0.02459 W/m/K
421.45 K, 1723 kPa, Fluid (supercritical or subcritical phases)	0.02131 W/m/K
421.45 K, 2204 kPa, Fluid (supercritical or subcritical phases)	0.02274 W/m/K
421.48 K, 2100 kPa, Fluid (supercritical or subcritical phases)	0.02256 W/m/K and 0.02228 W/m/K
421.51 K, 2403 kPa, Fluid (supercritical or subcritical phases)	0.02407 W/m/K and 0.02398 W/m/K
421.52 K, 1998 kPa, Fluid (supercritical or subcritical phases)	0.02205 W/m/K and 0.02199 W/m/K
421.53 K, 1561 kPa, Fluid (supercritical or subcritical phases)	0.02097 W/m/K
421.54 K, 1562 kPa, Fluid (supercritical or subcritical phases)	0.02106 W/m/K
421.56 K, 2307 kPa, Fluid (supercritical or subcritical phases)	0.02344 W/m/K and 0.02334 W/m/K
421.57 K, 1862 kPa, Fluid (supercritical or subcritical phases)	0.02171 W/m/K
421.57 K, 1863 kPa, Fluid (supercritical or subcritical phases)	0.02167 W/m/K
421.58 K, 1402 kPa, Fluid (supercritical or subcritical phases)	0.02076 W/m/K
421.59 K, 1402 kPa, Fluid (supercritical or subcritical phases)	0.02091 W/m/K
421.61 K, 2204 kPa, Fluid (supercritical or subcritical phases)	0.02283 W/m/K
421.62 K, 1724 kPa, Fluid (supercritical or subcritical phases)	0.02136 W/m/K
421.62 K, 2203 kPa, Fluid (supercritical or subcritical phases)	0.02292 W/m/K
421.62 K, 2616 kPa, Liquid	0.0497 W/m/K
421.63 K, 1724 kPa, Fluid (supercritical or subcritical phases)	0.0214 W/m/K
421.63 K, 2616 kPa, Liquid	0.04969 W/m/K
421.64 K, 1220 kPa, Fluid (supercritical or subcritical phases)	0.02082 W/m/K
421.64 K, 1221 kPa, Fluid (supercritical or subcritical phases)	0.02077 W/m/K
421.66 K, 2099 kPa, Fluid (supercritical or subcritical phases)	0.02245 W/m/K
421.66 K, 2100 kPa, Fluid (supercritical or subcritical phases)	0.02244 W/m/K
421.67 K, 2403 kPa, Fluid (supercritical or subcritical phases)	0.02364 W/m/K
421.68 K, 1031 kPa, Fluid (supercritical or subcritical phases)	0.02073 W/m/K
421.68 K, 2403 kPa, Fluid (supercritical or subcritical phases)	0.02418 W/m/K
421.69 K, 1998 kPa, Fluid (supercritical or subcritical phases)	0.02232 W/m/K
421.7 K, 1999 kPa, Fluid (supercritical or subcritical phases)	0.02203 W/m/K
421.71 K, 1562 kPa, Fluid (supercritical or subcritical phases)	0.02117 W/m/K
421.72 K, 2307 kPa, Fluid (supercritical or subcritical phases)	0.02349 W/m/K
421.74 K, 801 kPa, Fluid (supercritical or subcritical phases)	0.0208 W/m/K
421.75 K, 1862 kPa, Fluid (supercritical or subcritical phases)	0.02184 W/m/K
421.75 K, 1863 kPa, Fluid (supercritical or subcritical phases)	0.02174 W/m/K
421.77 K, 1401 kPa, Fluid (supercritical or subcritical phases)	0.02096 W/m/K
421.77 K, 1403 kPa, Fluid (supercritical or subcritical phases)	0.02094 W/m/K
421.78 K, 3760 kPa, Liquid	0.05136 W/m/K and 0.05147 W/m/K
421.79 K, 2203 kPa, Fluid (supercritical or subcritical phases)	0.02296 W/m/K and 0.02299 W/m/K
421.8 K, 3309 kPa, Liquid	0.05069 W/m/K
421.81 K, 1723 kPa, Fluid (supercritical or subcritical phases)	0.02142 W/m/K
421.81 K, 1724 kPa, Fluid (supercritical or subcritical phases)	0.02139 W/m/K
421.81 K, 2616 kPa, Liquid	0.04986 W/m/K and 0.05013 W/m/K
421.81 K, 2914 kPa, Liquid	0.05019 W/m/K and 0.05004 W/m/K
421.81 K, 3308 kPa, Liquid	0.05077 W/m/K
421.83 K, 1221 kPa, Fluid (supercritical or subcritical phases)	0.0209 W/m/K
421.84 K, 2100 kPa, Fluid (supercritical or subcritical phases)	0.02258 W/m/K
421.85 K, 2099 kPa, Fluid (supercritical or subcritical phases)	0.02249 W/m/K
421.88 K, 1030 kPa, Fluid (supercritical or subcritical phases)	0.02077 W/m/K
421.88 K, 1033 kPa, Fluid (supercritical or subcritical phases)	0.02075 W/m/K
421.88 K, 1998 kPa, Fluid (supercritical or subcritical phases)	0.0222 W/m/K and 0.02217 W/m/K
421.91 K, 1563 kPa, Fluid (supercritical or subcritical phases)	0.02121 W/m/K
421.91 K, 2306 kPa, Fluid (supercritical or subcritical phases)	0.02366 W/m/K
421.91 K, 2307 kPa, Fluid (supercritical or subcritical phases)	0.02365 W/m/K
421.92 K, 1563 kPa, Fluid (supercritical or subcritical phases)	0.02116 W/m/K
421.94 K, 802 kPa, Fluid (supercritical or subcritical phases)	0.02077 W/m/K
421.95 K, 1862 kPa, Fluid (supercritical or subcritical phases)	0.02178 W/m/K and 0.0218 W/m/K
421.97 K, 2203 kPa, Fluid (supercritical or subcritical phases)	0.02307 W/m/K
421.98 K, 1401 kPa, Fluid (supercritical or subcritical phases)	0.02101 W/m/K
421.98 K, 1403 kPa, Fluid (supercritical or subcritical phases)	0.02116 W/m/K
421.98 K, 2204 kPa, Fluid (supercritical or subcritical phases)	0.02311 W/m/K
421.99 K, 3758 kPa, Liquid	0.05138 W/m/K
421.99 K, 4307 kPa, Liquid	0.05224 W/m/K
422 K, 3762 kPa, Liquid	0.05146 W/m/K
422 K, 4305 kPa, Liquid	0.0522 W/m/K
422.01 K, 1724 kPa, Fluid (supercritical or subcritical phases)	0.02156 W/m/K and 0.02145 W/m/K
422.01 K, 2914 kPa, Liquid	0.05029 W/m/K
422.01 K, 3308 kPa, Liquid	0.05079 W/m/K
422.01 K, 3310 kPa, Liquid	0.05082 W/m/K
422.02 K, 2616 kPa, Liquid	0.05008 W/m/K and 0.05005 W/m/K
422.02 K, 2914 kPa, Liquid	0.05026 W/m/K
422.03 K, 2099 kPa, Fluid (supercritical or subcritical phases)	0.02265 W/m/K
422.04 K, 2099 kPa, Fluid (supercritical or subcritical phases)	0.02262 W/m/K
422.06 K, 1218 kPa, Fluid (supercritical or subcritical phases)	0.02083 W/m/K
422.06 K, 1220 kPa, Fluid (supercritical or subcritical phases)	0.0209 W/m/K
422.08 K, 1998 kPa, Fluid (supercritical or subcritical phases)	0.0223 W/m/K
422.1 K, 1030 kPa, Fluid (supercritical or subcritical phases)	0.02079 W/m/K
422.1 K, 1031 kPa, Fluid (supercritical or subcritical phases)	0.02076 W/m/K
422.12 K, 1562 kPa, Fluid (supercritical or subcritical phases)	0.02118 W/m/K
422.16 K, 1862 kPa, Fluid (supercritical or subcritical phases)	0.02194 W/m/K
422.16 K, 1863 kPa, Fluid (supercritical or subcritical phases)	0.02189 W/m/K
422.18 K, 803 kPa, Fluid (supercritical or subcritical phases)	0.0208 W/m/K
422.18 K, 4947 kPa, Liquid	0.05308 W/m/K
422.18 K, 4948 kPa, Liquid	0.05312 W/m/K
422.2 K, 1401 kPa, Fluid (supercritical or subcritical phases)	0.02102 W/m/K
422.2 K, 1402 kPa, Fluid (supercritical or subcritical phases)	0.02108 W/m/K
422.21 K, 3760 kPa, Liquid	0.05155 W/m/K and 0.05149 W/m/K
422.21 K, 4301 kPa, Liquid	0.05224 W/m/K
422.22 K, 4305 kPa, Liquid	0.05226 W/m/K
422.23 K, 1723 kPa, Fluid (supercritical or subcritical phases)	0.02155 W/m/K
422.23 K, 3307 kPa, Liquid	0.05087 W/m/K
422.24 K, 1723 kPa, Fluid (supercritical or subcritical phases)	0.0216 W/m/K
422.24 K, 3310 kPa, Liquid	0.05093 W/m/K
422.25 K, 1221 kPa, Fluid (supercritical or subcritical phases)	0.0209 W/m/K
422.25 K, 2616 kPa, Liquid	0.05034 W/m/K
422.25 K, 2913 kPa, Liquid	0.05043 W/m/K
422.25 K, 2914 kPa, Liquid	0.05049 W/m/K
422.33 K, 1032 kPa, Fluid (supercritical or subcritical phases)	0.02082 W/m/K
422.33 K, 1561 kPa, Fluid (supercritical or subcritical phases)	0.02131 W/m/K
422.33 K, 6610 kPa, Liquid	0.05507 W/m/K
